Data taken from patent publication US8173638B2 (Boehringer Ingelheim International GmbH, priority 2006, dated 2012).
Like-named read-outs stand apart in the source and are kept apart here.

Target: T1, human CB2R (Homo sapiens, UniProt P34972)
T1 construct: host or cells: CHO cells
Assay: CB2R mediated modulation of cAMP synthesis
Format: cell-based
Conditions: for Emax: 0.5 h, read-out: Agonist Efficacy (%); for agonistic activity: found through the use of the described assays (CB2 agonists), qualitative statement
Procedure: B. CB2R Mediated Modulation of cAMP Synthesis:
CHO cells expressing human CB2R (Euroscreen) were plated at a density of 5000 cells per well in 384 well plates and incubated overnight at 37° C. After removing the media, the cells were treated with test compounds diluted in stimulation buffer containing 1 mM IBMX, 0.25% BSA and 10 uM Forskolin. The assay was incubated for 30 minutes at 37° C. Cells were lysed and the cAMP concentration was measured using DiscoverX-XS cAMP kit, following the manufacturer's protocol. In this setting, agonists will decrease forskolin induced production of cAMP while inverse agonists will further increase forskolin induced production of cAMP. EC50 of agonists were calculated as follows. The maximal amount of cAMP produced by forskolin compared to the level of cAMP inhibited by 1 uM CP55940 is defined as 100%. […] Data was analyzed using a four-parameter logistic model. (Model 205 of XLfit 4.0).

[1] = CHO cells expressing human CB2R, cAMP inhibited by 1 uM CP55940 defined as 100%

T1 sequence (P34972 whole entry): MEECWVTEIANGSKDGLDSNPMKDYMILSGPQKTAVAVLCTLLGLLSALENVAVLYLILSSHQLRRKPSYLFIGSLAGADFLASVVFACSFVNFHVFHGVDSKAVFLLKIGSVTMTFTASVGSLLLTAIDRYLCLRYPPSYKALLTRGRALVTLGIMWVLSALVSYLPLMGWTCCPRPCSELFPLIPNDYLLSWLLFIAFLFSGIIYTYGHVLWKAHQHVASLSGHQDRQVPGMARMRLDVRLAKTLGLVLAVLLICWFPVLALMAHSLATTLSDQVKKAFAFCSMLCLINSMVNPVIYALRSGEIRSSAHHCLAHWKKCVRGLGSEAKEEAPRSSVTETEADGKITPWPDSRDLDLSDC

| agonistic activity | Compound | further results |
| --- | --- | --- |
| agonistic activity | O=C(Nc1nc(-c2ccccc2)cs1)N1CCCN(C(=O)c2ccc(Cl)cc2)CC1 [4-(4-Chloro-benzoyl)-[1,4]diazepane-1-carboxylic acid (4-phenyl-thiazol-2-yl)-amide] | – |
| agonistic activity | O=C(Nc1ccc(C(F)(F)F)cc1)N1CCCN(C(=O)C2CCCCC2)CC1 [4-Cyclohexanecarbonyl-[1,4]diazepane-1-carboxylic acid (4-trifluoromethyl-phenyl)-amide] | – |
| agonistic activity | O=C(Nc1cc(Cl)cc(Cl)c1)N1CCCN(C(=O)C2CCCCC2)CC1 [4-Cyclohexanecarbonyl-[1,4]diazepane-1-carboxylic acid (3,5-dichloro-phenyl)-amide] | – |
| agonistic activity | Cc1ccc(C(=O)N2CCCN(C(=O)Nc3ccc4ccccc4c3)CC2)cc1 [4-(4-Methyl-benzoyl)-[1,4]diazepane-1-carboxylic acid naphthalen-2-ylamide] | – |
| agonistic activity | CCCCc1ccc(NC(=O)N2CCCN(C(=O)C3CCCC3)CC2)cc1 [4-Cyclopentanecarbonyl-[1,4]diazepane-1-carboxylic acid (4-butyl-phenyl)-amide] | – |
| agonistic activity | CCC(C)c1ccc(NC(=O)N2CCCN(C(=O)N3CCOCC3)CC2)cc1 (stereo not shown) [4-(Morpholine-4-carbonyl)-[1,4]diazepane-1-carboxylic acid (4-sec-butyl-phenyl)-amide] | – |
| agonistic activity | O=C(Nc1ccc(Oc2ccccc2)nc1)N1CCCN(C(=O)C2CCOCC2)CC1 [4-(Tetrahydro-pyran-4-carbonyl)-[1,4]diazepane-1-carboxylic acid (6-phenoxy-pyridin-3-yl)-amide] | – |
| agonistic activity | O=C(Nc1ccc(SC(F)(F)F)cc1)N1CCCN(C(=O)C2CCCCC2)CC1 [4-Cyclohexanecarbonyl-[1,4]diazepane-1-carboxylic acid (4-trifluoromethylsulfanyl-phenyl)-amide] | – |
| agonistic activity | CC(C)(C)c1cnc(NC(=O)N2CCCN(C(=O)C3CCC(O)CC3)CC2)s1 (stereo not shown) [4-(4-Hydroxy-cyclohexanecarbonyl)-[1,4]diazepane-1-carboxylic acid (5-tert-butyl-thiazol-2-yl)-amide] | – |
| agonistic activity | O=C(Nc1ccc(C(F)(F)F)cc1)N1CCCN(C(=O)c2ccc(Cl)cc2)CC1 [4-(4-Chloro-benzoyl)-[1,4]diazepane-1-carboxylic acid (4-trifluoromethyl-phenyl)-amide] | – |
| agonistic activity | O=C(Nc1cc(-c2ccccc2)no1)N1CCCN(C(=O)N2CCOCC2)CC1 [4-(Morpholine-4-carbonyl)-[1,4]diazepane-1-carboxylic acid (3-phenyl-isoxazol-5-yl)-amide] | – |
| agonistic activity | CC(C)CC(=O)N1CCCN(C(=O)Nc2cc(C(C)(C)C)on2)CC1 [4-(3-Methyl-butyryl)-[1,4]diazepane-1-carboxylic acid (5-tert-butyl-isoxazol-3-yl)-amide] | – |
| agonistic activity | O=C(CCC(F)(F)F)N1CCCN(C(=O)Nc2ccc3ccccc3c2)CC1 [4-(4,4,4-Trifluoro-butyryl)-[1,4]diazepane-1-carboxylic acid naphthalen-2-ylamide] | – |

More lines, now with the values behind:

| Compound | agonistic activity | further results |
| --- | --- | --- |
| CCCCc1ccc(NC(=O)N2CCCN(C(=O)CC3CCCC3)CC2)cc1 [Example 11] | – | Emax [1]: 65%; EC50 (read-out: hCB2 cAMP EC50): 74 nM |
| O=C(COc1ccccc1)N1CCCN(C(=O)Nc2ccc3ccccc3c2)CC1 [4-(2-Phenoxy-acetyl)-[1,4]diazepane-1-carboxylic acid naphthalen-2-ylamide] | agonistic activity | – |
| CC(C)c1ccc(NC(=S)N2CCCN(C(=O)CC3CCCC3)CC2)cc1 [4-(2-Cyclopentyl-acetyl)-[1,4]diazepane-1-carbothioic acid (4-isopropyl-phenyl)-amide] | agonistic activity | – |
| CC(C)(C)C(=O)N1CCCN(C(=O)Nc2ccc3ccccc3c2)CC1 [4-(2,2-Dimethyl-propionyl)-[1,4]diazepane-1-carboxylic acid naphthalen-2-ylamide] | agonistic activity | – |
| CC(C)(C)c1cc(NC(=O)N2CCCN(C(=O)NC3CCCC3)CC2)no1 [Compound 217, [1,4]Diazepane-1,4-dicarboxylic acid 1-[(5-tert-butyl-isoxazol-3-yl)-amide] 4-cyclopentylamide] | – | EC50: 32 nM; Emax (CHO): 100% |
| O=C(Nc1ccc2ccccc2c1)N1CCCN(C(=O)c2ccc(Cl)cc2)CC1 [Compound 79, 4-(4-Chloro-benzoyl)-[1,4]diazepane-1-carboxylic acid naphthalen-2-ylamide] | – | Emax [1]: 100%; EC50 (read-out: hCB2 cAMP EC50): 46 nM |
| O=C(CCC1CCCC1)N1CCCN(C(=O)NC2CCCCC2)CC1 [4-(3-Cyclopentyl-propionyl)-[1,4]diazepane-1-carboxylic acid cyclohexylamide] | agonistic activity | – |
| CC(=O)NC1CCC(C(=O)N2CCCN(C(=O)Nc3cc(C(C)(C)C)on3)CC2)CC1 (stereo not shown) [Compound 160, 4-(4-Acetylamino-cyclohexanecarbonyl)-[1,4]diazepane-1-carboxylic acid (5-tert-butyl-isoxazol-3-yl)-amide] | – | Emax [1]: 107%; EC50 (read-out: hCB2 cAMP EC50): 68 nM |
| O=C(Nc1nc(-c2ccccc2)cs1)N1CCCN(C(=O)C2CCOCC2)CC1 [4-(Tetrahydro-pyran-4-carbonyl)-[1,4]diazepane-1-carboxylic acid (4-phenyl-thiazol-2-yl)-amide] | agonistic activity | – |
| CCc1ccc(NC(=O)N2CCCN(C(=O)CC3CCCC3)CC2)cc1 [4-(2-Cyclopentyl-acetyl)-[1,4]diazepane-1-carboxylic acid (4-ethyl-phenyl)-amide] | agonistic activity | – |
| O=C(CC1CCOCC1)N1CCCN(C(=O)Nc2ccc3ccccc3c2)CC1 [4-(2-Tetrahydro-pyran-4-yl-acetyl)-[1,4]diazepane-1-carboxylic acid (2-naphthyl)-amide] | agonistic activity | – |
| O=C(CCC1CCCC1)N1CCCN(C(=O)Nc2cccc3ccccc23)CC1 [4-(3-Cyclopentyl-propionyl)-[1,4]diazepane-1-carboxylic acid naphthalen-1-ylamide] | agonistic activity | – |
| CCCCCc1ccc(NC(=O)N2CCCN(C(=O)CCC3CCCC3)CC2)cc1 [4-(3-Cyclopentyl-propionyl)-[1,4]diazepane-1-carboxylic acid (4-pentyl-phenyl)-amide] | agonistic activity | – |
| O=C(CN1CCCCC1)N1CCCN(C(=O)Nc2ccc3ccccc3c2)CC1 [4-(2-Piperidin-1-yl-acetyl)-[1,4]diazepane-1-carboxylic acid naphthalen-2-ylamide] | agonistic activity | – |
| O=C(CC1CCCC1)N1CCCN(C(=O)Nc2ccc(SC(F)(F)F)cc2)CC1 [4-(2-cyclopentyl-acetyl)-[1,4]diazepane-1-carboxylic acid (4-trifluoromethylsulfanyl-phenyl)-amide] | agonistic activity | – |
| CC(C)(C)c1cc(NC(=O)N2CCCN(C(=O)C3CCC(F)(F)CC3)CC2)no1 [4-(4,4-Difluoro-cyclohexanecarbonyl)-[1,4]diazepane-1-carboxylic acid (5-tert-butyl-isoxazol-3-yl)-amide] | agonistic activity | – |
| CC(C)(C)CC(=O)N1CCCN(C(=O)Nc2ccc3ccccc3c2)CC1 [4-(3,3-Dimethyl-butyryl)-[1,4]diazepane-1-carboxylic acid naphthalen-2-ylamide] | agonistic activity | – |
| CC(C)(C)c1cc(NC(=O)N2CCCN(C(=O)N3CCN(S(C)(=O)=O)CC3)CC2)no1 [4-(4-Methanesulfonyl-piperazine-1-carbonyl)-[1,4]diazepane-1-carboxylic acid (5-tert-butyl-isoxazol-3-yl)-amide] | agonistic activity | – |
| CSc1ccc(NC(=O)N2CCCN(C(=O)CC3CCOCC3)CC2)cc1 [4-(2-Tetrahydro-pyran-4-yl-acetyl)-[1,4]diazepane-1-carboxylic acid (4-methylsulfanyl-phenyl)-amide] | agonistic activity | – |
| CC(C)(C)c1cc(NC(=O)N2CCCN(C(=O)N3CCS(=O)(=O)CC3)CC2)on1 [Compound 211, 4-(1,1-Dioxo-1 λ^6-thiomorpholine-4-carbonyl)-[1,4]diazepane-1-carboxylic acid (3-tert-butyl-isoxazol-5-yl)-amide] | – | Emax [1]: 100%; EC50 (read-out: hCB2 cAMP EC50): 95 nM |
| O=C(CCC1CC1)N1CCCN(C(=O)Nc2ccc3ccccc3c2)CC1 [4-(3-Cyclopropyl-propionyl)-[1,4]diazepane-1-carboxylic acid naphthalen-2-ylamide] | agonistic activity | – |
| O=C(CC1CCCC1)N1CCCN(C(=O)Nc2ccc(SC(F)(F)F)cc2)CC1 [Compound 82, 4-(2-cyclopentyl-acetyl)-[1,4]diazepane-1-carboxylic acid (4-trifluoromethylsulfanyl-phenyl)-amide] | – | Emax [1]: 92%; EC50 (read-out: hCB2 cAMP EC50): 36 nM |
| CC(C)c1ccc(NC(=O)N2CCCN(C(=O)CC3CCOCC3)CC2)cc1 [4-(2-Tetrahydro-pyran-4-yl-acetyl)-[1,4]diazepane-1-carboxylic acid (4-isopropyl-phenyl)-amide] | agonistic activity | – |
| CC(C)c1ccc(NC(=O)N2CCCN(C(=O)CC(C)(C)C)CC2)cc1 [4-(3,3-Dimethyl-butyryl)-[1,4]diazepane-1-carboxylic acid (4-isopropyl-phenyl)-amide] | agonistic activity | – |
